What was measured:
Format in all cases: cell-based
SIRT2 = SIRT2 transcription, semi-quantitative RT-PCR in human epidermal progenitors; settings: 72 h
Procedure: (§1) Human neonatal epidermal progenitors (Thermo Fisher Scientific, NY) were seeded in 6-well plates at a density of 2×10^5 cells/well. Each well received 2 ml of Epilife media containing 60 μM calcium chloride (Thermo Fisher Scientific, NY). Plates were incubated in a humidified chamber at 37 degrees Celsius and 5 percent CO2. Twenty-four hours later, cells were treated with various concentrations of oxyresveratrol or decapeptide-12 dissolved in PBS containing 5 percent DMSO. Control wells received vehicle only (5 percent DMSO and PBS). Final concentration of DMSO in each well was 0.05 percent.
(§2) After a 72 hour incubation period, cells were trypsinized and total RNA extracted, using RNeasy kit (Qiagen, Valencia, Calif.) according to the manufacturer's protocol.
(§3) RNA concentration was determined using nanodrop (Thermo fisher scientific, NY). Two μg of total RNA were used to synthesize cDNA using oligo dT primers and TaqMan reverse transcription reagents (Thermo fisher scientific, NY). The reaction was carried out in DNA Engine Peltier Thermal Cycler (Bio-Rad, Hercules, Calif.). The annealing temperature was 25 degrees Celsius for 10 minutes, followed by first strand synthesis at 48 degrees Celsius for 1 hour, and heat inactivation at 95 degrees Celsius for 5 minutes.
(§4) The SIRT1-7 primers (table 1) were designed using Primer3. The semi-quantitative PCR reactions were performed on a DNA Engine Peltier Thermo Cycler (Bio-Rad, Hercules, Calif.). PCR was carried under the following conditions: denaturation at 94 degrees Celsius for 2 minutes and primer extension at 54 degrees Celsius for 30 seconds in 34 cycles for SIRT 1-7 and the housekeeping gene 18S.
(§5) Samples were run and resolved on a 1.5 percent agarose gel containing 0.5 μg/ml of ethidium bromide and imaged using the FluorChem HD2 Imaging System (Protein simple, San Jose, Calif.). Densitometry analysis was carried out using the AlphaEase FC software (Protein simple, San Jose, Calif.). Intensity ratios were calculated as the intensity value for each gene divided by the intensity value of the internal control gene 18S.
(§6) The effect of the decapeptides P4, P4A, P4B, and P4C upon the transcription levels of sirtuins 1-7 was evaluated. Table 4 summarizes transcription levels for all four decapeptides with the corresponding genes, at tested concentrations of: 10, 30, 50, 100, and 300 (all in μM).

SIRT7 = SIRT7 transcription, semi-quantitative RT-PCR in human epidermal progenitors; settings: 72 h
Procedure: as §1, §2, §3, §4, §5, §6

[1] = system: human epidermal progenitors; assay: Trypan blue dye exclusion cytotoxicity assay, 72 h, epidermal progenitors; settings: human, 72 h
Procedure: Cellular toxicity was measured using a trypan blue dye exclusion assay. Cells were cultured in 6-well plates at a density of 4×10^5 cells/well. Each well received a different concentration of decapeptide-12 or oxyresveratrol (0, 3, 10, 30, 100, 300, and 1000 μM). Plates were incubated at 37 degrees Celsius in a humidified 5 percent CO2 chamber. After 72 h, an aliquot was taken and cells counted using a hemacytometer. Cytotoxicity was measured according to the following formula: [1−(# of cells in control−# of live cells in test sample)/# of cells in control]×100 percent.

SIRT6 = SIRT6 transcription, semi-quantitative RT-PCR in human epidermal progenitors; settings: 72 h
Procedure: as §1, §2, §3, §4, §5, §6

SIRT4 = SIRT4 transcription, semi-quantitative RT-PCR in human epidermal progenitors; settings: 72 h
Procedure: as §1, §2, §3, §4, §5, §6

SIRT3 = SIRT3 transcription, semi-quantitative RT-PCR in human epidermal progenitors; settings: 72 h
Procedure: as §1, §2, §3, §4, §5, §6

SIRT1 = SIRT1 transcription, semi-quantitative RT-PCR in human epidermal progenitors; settings: 72 h
Procedure: as §1, §2, §3, §4, §5, §6

SIRT5 = SIRT5 transcription, semi-quantitative RT-PCR in human epidermal progenitors; settings: 72 h
Procedure: as §1, §2, §3, §4, §5, §6

[2] = system: human epidermal progenitors; assay: in vitro; settings: 72 h
Procedure: Proliferation rates were determined using a TACS® MTT Cell Proliferation Kit (R&D systems, Minneapolis, Minn.). Cells were seeded at 2.5×10^4/well in 96-well plates in a humidified atmosphere with 5 percent CO2 at 37 degrees Celsius. Twenty-four hours later, decapeptide-12 or oxyresveratrol were added to the corresponding wells at varying concentrations (0, 3, 10, 30, 100, 300, and 1000 μM), and cultures were then incubated for 72 hours. The remainder of the procedure was performed following the manufacturer's protocol.
Proliferation rates for three human cell lines (epidermal progenitors, melanoblasts, and fibroblasts) were determined using a TACS® MTT Cell Proliferation Kit. Cells were seeded at 2.5×10^4/well in 96-well plates in a humidified atmosphere with 5 percent CO2 at 37 degrees Celsius. Twenty-four hours later, the decapeptides were added to the corresponding wells at varying concentrations and incubated for 72 hours. The remainder of the procedure was performed following the manufacturer's protocol.

SMILES: Oc1cc(O)cc(/C=C/c2ccc(O)cc2O)c1 [oxyresveratrol, Oxyresveratrol, reference compound]
- SIRT2 transcription increase relative to control (SIRT2; 3 μM): 7.9 ± 2%
- SIRT2 transcription increase relative to control (SIRT2; 10 μM): 14.9 ± 1.9%
- SIRT2 transcription increase relative to control (SIRT2; 30 μM): 43.1 ± 2.4%
- SIRT2 transcription increase relative to control (SIRT2; 50 μM): 56.3 ± 7.7%
- SIRT2 transcription increase relative to control (SIRT2; 100 μM): 41.2 ± 8.1%
- SIRT2 transcription increase relative to control (SIRT2; 300 μM): 39 ± 9.3%
- SIRT2 transcription increase relative to control (SIRT2; 500 μM): 33.1 ± 12.4%
- SIRT2 transcription increase relative to control (SIRT2; 1000 μM): 31.2 ± 12.3%
- SIRT7 transcription increase relative to control (SIRT7; 3 μM): 6.3 ± 1%
- SIRT7 transcription increase relative to control (SIRT7; 10 μM): 65 ± 2.9%
- SIRT7 transcription increase relative to control (SIRT7; 30 μM): 95±7%
- SIRT7 transcription increase relative to control (SIRT7; 30 μM, listed as Oxy): 95 ± 6.7%
- SIRT7 transcription increase relative to control (SIRT7; 50 μM): 114 ± 8.1%
- SIRT7 transcription increase relative to control (SIRT7; 100 μM): 132 ± 7.6%
- SIRT7 transcription increase relative to control (SIRT7; 300 μM): 168 ± 4.8%
- SIRT7 transcription increase relative to control (SIRT7; 500 μM): 177 ± 6.6%
- SIRT7 transcription increase relative to control (SIRT7; 1000 μM): 165 ± 5.1%
- cell death ([1]; 100 μM): 6±1%
- cell death ([1]; 1 mM): 16±2%
- SIRT6 transcription increase relative to control (SIRT6; 3 μM): 6.1 ± 1%
- SIRT6 transcription increase relative to control (SIRT6; 10 μM): 34 ± 5.5%
- SIRT6 transcription increase relative to control (SIRT6; 30 μM): 73±8%
- SIRT6 transcription increase relative to control (SIRT6; 30 μM, listed as Oxy): 73 ± 8.1%
- SIRT6 transcription increase relative to control (SIRT6; 50 μM): 81.3 ± 8.1%
- SIRT6 transcription increase relative to control (SIRT6; 100 μM): 82.4 ± 8.4%
- SIRT6 transcription increase relative to control (SIRT6; 300 μM): 87.4 ± 9.3%
- SIRT6 transcription increase relative to control (SIRT6; 500 μM): 81.2 ± 12.4%
- SIRT6 transcription increase relative to control (SIRT6; 1000 μM): 75 ± 15.1%
- SIRT4 transcription increase relative to control (SIRT4; 3 μM): 8.1 ± 1%
- SIRT4 transcription increase relative to control (SIRT4; 10 μM): 12.4 ± 2.1%
- SIRT4 transcription increase relative to control (SIRT4; 30 μM): 49 ± 6.7%
- SIRT4 transcription increase relative to control (SIRT4; 50 μM): 52.1 ± 6.6%
- SIRT4 transcription increase relative to control (SIRT4; 100 μM): 64.1 ± 7.4%
- SIRT4 transcription increase relative to control (SIRT4; 300 μM): 67 ± 8.7%
- SIRT4 transcription increase relative to control (SIRT4; 500 μM): 61.2 ± 8.8%
- SIRT4 transcription increase relative to control (SIRT4; 1000 μM): 71.3 ± 9.2%
- SIRT3 transcription increase relative to control (SIRT3; 3 μM): 10 ± 3%
- SIRT3 transcription increase relative to control (SIRT3; 10 μM): 52.7 ± 5.1%
- SIRT3 transcription increase relative to control (SIRT3; 30 μM): 133±5%
- SIRT3 transcription increase relative to control (SIRT3; 30 μM, listed as Oxy): 133 ± 4.8%
- SIRT3 transcription increase relative to control (SIRT3; 50 μM): 156 ± 9.2%
- SIRT3 transcription increase relative to control (SIRT3; 100 μM): 148 ± 7.3%
- SIRT3 transcription increase relative to control (SIRT3; 300 μM): 152.2 ± 9%
- SIRT3 transcription increase relative to control (SIRT3; 500 μM): 151 ± 8.1%
- SIRT3 transcription increase relative to control (SIRT3; 1000 μM): 151 ± 7.4%
- SIRT1 transcription increase relative to control (SIRT1; 3 μM): 8.7 ± 1%
- SIRT1 transcription increase relative to control (SIRT1; 10 μM): 45 ± 7.7%
- SIRT1 transcription increase relative to control (SIRT1; 30 μM): 125±9%
- SIRT1 transcription increase relative to control (SIRT1; 30 μM, listed as Oxy): 124.5 ± 8.6%
- SIRT1 transcription increase relative to control (SIRT1; 50 μM): 166 ± 14.5%
- SIRT1 transcription increase relative to control (SIRT1; 100 μM): 187 ± 16.6%
- SIRT1 transcription increase relative to control (SIRT1; 300 μM): 187 ± 15.4%
- SIRT1 transcription increase relative to control (SIRT1; 500 μM): 176 ± 10%^
- SIRT1 transcription increase relative to control (SIRT1; 1000 μM): 175 ± 9%
- SIRT5 transcription increase relative to control (SIRT5; 3 μM): 7.1 ± 1%
- SIRT5 transcription increase relative to control (SIRT5; 10 μM): 12.3 ± 3%^
- SIRT5 transcription increase relative to control (SIRT5; 30 μM): 45.1 ± 4.3%
- SIRT5 transcription increase relative to control (SIRT5; 50 μM): 46 ± 4%
- SIRT5 transcription increase relative to control (SIRT5; 100 μM): 36.1 ± 6.7%
- SIRT5 transcription increase relative to control (SIRT5; 300 μM): 33.4 ± 7.1%
- SIRT5 transcription increase relative to control (SIRT5; 500 μM): 35.1 ± 8.1%
- SIRT5 transcription increase relative to control (SIRT5; 1000 μM): 37 ± 6.8%
- reduced cell proliferation ([2]; 300 μM): 5±1%
- reduced cell proliferation ([2]; 1 mM): 12±2%

Source: US20180296456A1, “Decapeptide-12 Modulation of Sirtuin Gene Expression in Epidermal Keratinocyte Progenitors” (Escape Therapeutics, Inc., priority 2017, published 2018)
